This passage reports IC50, DC50 and Kd results from patent US20250115598A1 (Anaxis Pharma Pty Ltd, priority 2021, published 2025).

Assay [1] concerns U937 human histiocytic leukemia cell line. Kind of assay: Cellular assay: inhibition of TSQ induced necroptosis, CellTitre-Glo viability. Conditions: U937 cells, 48 hours, TSQ cocktail, read-out: Inhibition of TSQ-induced necroptosis (IC50 cell-based assay). The procedure:
Cellular Assay: Screening Compounds for Inhibition of TSQ Induced Necroptosis, 384 Well Plate Format.
(§1) • Cell Line ID: U937 human histiocytic leukemia cell line. • Cell Concentration (cells/well): Final cell density is 20000 cells per well. • Cell growth medium: HT-RPMI medium+7.4% Fetal Bovine Serum (FBS). Cells are cultured in Corning 150 cm^2 tissue culture flasks with vented caps at 37° C./5% CO2. • Incubation: Plates were incubated at 37° C./5% CO2 in a humidified incubator for 48 hours following addition of compounds and death stimuli (TSQ cocktail). • Compound concentration: 36 μM starting concentration, 1:3 dilution, 10 point • DMSO final concentration (% v/v): 0.3%. Compounds in TSQ Cocktail (T: TNF; S: Smac Mimetic; Q: Q-VD-OPh) and their Final Concentrations: • hTNF-Fc (100 ng/ml)—produced by standard procedures as shown in Bossen et al., J. Biol. Chem., 2006, 281(20), 13964-13971. • Compound A (500 nM)—Smac mimetic, Tetralogic and SYNthesis med chem • Q-VD-OPh (10 μM)—MP Biomedicals
(§2) The cellular assay was carried out according to the following steps: • 1. Each well was prepared by sequential addition of: • a. DMSO (control; columns 1-2 and 23-24) or compound in DMSO—addition was performed using acoustic transfer of nL volumes of stock compound to give final test concentrations of 36, 12, 4, 1.3, 0.44, 0.148, 0.049, 0.016, 0.005 and 0.002 μM. All wells were backfilled with DMSO to a final total volume in the well of 100 nL. • b. Following compound/DMSO addition in step (a), 40 μL of cell suspension (5×10^5 cells/mL) was added to provide a final cell concentration of 20,000 cells per well, and • c. Following cell addition in step (b), 10 μL of 5×TSQ cocktail (except to positive controls; columns 1 and 23) was added to each well. • 2. After 48 hours, plate was removed from the 37° C. incubator and equilibrated to room temperature for 45 minutes. • 3.15 μL of room temperature CellTitre-Glo2™ (Promega™) was added to each well. • 4. Shook plates for 2 minutes (˜600 rpm) and incubated at room temperature for 15 minutes to allow signal to stabilise. • 5. Read luminescence readout on a plate reader.
Percent viability was calculated for each compound according to equation (2):
(§3) • Assay involving the TSQ cocktail (T: TNF; S: Smac mimetic; Q: Q-VD-OPh): TSQ treatment ensures that cells specifically undergo necroptotic cell death. TNF activates the TNF receptor, Smac mimetic directs the signal away from proinflammatory signaling and toward the RIPK1/RIPK3-mediated cell death pathways, and Q-VD-OPh ensures that the apoptotic response is blocked leaving only the programmed necrosis response. The compounds' activity (solution in DMSO) tested in this TSQ-induced assay was evaluated by determining the number of viable cells in culture by measuring the amount of ATP present as measured by CelltiterGlo. • Counter screen: In parallel, all compounds were tested for their ability to affect cell viability. The same U937 cells were treated with compound in DMSO without the TSQ cocktail. This counter screen enabled evaluation of off-target effects. In this case, cell viability was measured by CelltiterGlo.

A further assay concerns U937 cells. Kind of assay: Counter screen: cell viability without the TSQ cocktail (off-target effect). The arrangement: species or system human. The procedure:
as §1, §2, §3

The target in another assay is endogenous MLKL in MDF (Mus musculus (Mouse), UniProt Q9D2Y4). The assay is described as follows: Degradation assay: endogenous MLKL in MDF (western blot). Conditions: MDF cells, 24 h incubation with compound, MLKL adjusted for loading with GAPDH, normalized to DMSO only control, read-out: Degradation of endogenous MLKL in MDF (DC50 cell-based assay). The method in brief: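 MDF (seeded the day before) or U937 cells were treated 24 h at 37 °C, 10% CO2 with compound at 10, 2, 0.4, 0.08 and 0.016 μM final. Endogenous MLKL was quantified by western blot (anti-MLKL 3H1), normalized to GAPDH. Percent degradation was taken relative to DMSO control.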
Sequence of endogenous MLKL in MDF (Q9D2Y4 whole entry): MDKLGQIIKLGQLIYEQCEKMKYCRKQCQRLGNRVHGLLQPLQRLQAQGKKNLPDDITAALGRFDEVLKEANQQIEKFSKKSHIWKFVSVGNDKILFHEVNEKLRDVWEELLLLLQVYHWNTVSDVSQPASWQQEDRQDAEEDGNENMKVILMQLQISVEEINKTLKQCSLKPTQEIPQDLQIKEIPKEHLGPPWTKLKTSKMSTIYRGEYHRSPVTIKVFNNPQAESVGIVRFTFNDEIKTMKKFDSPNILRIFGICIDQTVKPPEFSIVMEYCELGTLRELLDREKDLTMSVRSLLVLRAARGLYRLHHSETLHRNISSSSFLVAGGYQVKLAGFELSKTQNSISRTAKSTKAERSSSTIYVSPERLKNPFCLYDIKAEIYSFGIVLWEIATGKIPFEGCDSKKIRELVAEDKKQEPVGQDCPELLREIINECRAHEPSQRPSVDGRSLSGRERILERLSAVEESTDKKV

The next assay concerns the target human MLKL (full length) (Homo sapiens (Human), UniProt Q8NB16). Kind of assay: KINOMEscan binding assay, human MLKL (full length). A digest of the protocol:
(§4)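 Active-site competition binding: DNA-tagged kinase (T7 phage fusion from BL21-derived E. coli lysate, or HEK-293-expressed) captured on immobilized-ligand beads, with bound kinase in the eluate quantified by qPCR. Compounds ran as 11-point 3-fold dilutions, 1% DMSO, top 30,000 nM for most. Kd came from a Hill fit (slope −1).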

For another assay, the target named is human RIPK1 (Homo sapiens (Human), UniProt Q13546). Kind of assay: KINOMEscan binding assay, human RIPK1. Conditions: Table 21. A digest of the protocol: as §4
Sequence of human RIPK1 (Q13546 whole entry): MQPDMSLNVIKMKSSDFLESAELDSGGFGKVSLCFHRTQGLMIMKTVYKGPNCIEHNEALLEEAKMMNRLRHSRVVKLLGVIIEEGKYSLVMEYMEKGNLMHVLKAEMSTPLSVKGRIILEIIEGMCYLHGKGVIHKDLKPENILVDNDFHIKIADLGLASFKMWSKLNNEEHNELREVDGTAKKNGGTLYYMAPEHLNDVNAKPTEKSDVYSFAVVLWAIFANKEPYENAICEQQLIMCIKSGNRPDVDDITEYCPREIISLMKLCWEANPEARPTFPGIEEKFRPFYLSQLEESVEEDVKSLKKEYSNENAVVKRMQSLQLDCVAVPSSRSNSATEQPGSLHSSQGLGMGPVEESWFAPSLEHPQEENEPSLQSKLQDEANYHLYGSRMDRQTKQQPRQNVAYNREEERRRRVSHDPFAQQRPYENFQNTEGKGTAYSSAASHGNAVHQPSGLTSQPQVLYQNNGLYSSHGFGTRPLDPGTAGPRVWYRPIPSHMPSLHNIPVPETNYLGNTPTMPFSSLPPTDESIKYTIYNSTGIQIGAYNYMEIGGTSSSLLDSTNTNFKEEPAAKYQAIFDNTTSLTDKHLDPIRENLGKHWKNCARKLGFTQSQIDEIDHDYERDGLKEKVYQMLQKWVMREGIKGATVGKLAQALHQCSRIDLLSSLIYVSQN
The next assay has as its target human RIPK3 (Homo sapiens (Human), UniProt Q9Y572). Kind of assay: KINOMEscan binding assay, human RIPK3. Conditions: Table 21. A digest of the protocol:
as §4

Assay [2] has as its system Immortalised Mouse Dermal Fibroblasts (MDFs). Kind of assay: Cellular assay: inhibition of TSI induced necroptosis, CellTitre-Glo viability. Conditions: Mus musculus, Fibroblast, MDF, 3 hours TSI cocktail, read-out: Inhibition of TSI-induced necroptosis (IC50 cell-based assay) in MDF. The method in brief:
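Immortalised mouse dermal fibroblasts (2200 cells/well) pretreated 30 min with compound, 10-point 1:3 series from 36 μM, 0.3% DMSO. Then 3 h at 37° C. with TNF (100 ng/ml), Smac mimetic (500 nM) and IDN-6556 (10 μM). CellTiter-Glo luminescence normalised to DMSO (100%) and DMSO+TSI (0%); IC50 from 4-parameter logistic fit.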

The mark [3] stands for this setting: Homo sapiens, U-937, Table 26, read-out: Off-target effect (IC50 cell-based assay).
The mark [4] stands for this setting: KINOMEscan, Table 21, read-out: Human MLKL (full-length) (KD).
[5] abbreviates: Homo sapiens, U-937, Table 23, read-out: Off-target effect (IC50 cell-based assay).
[6] abbreviates: Table 23, read-out: Off-target effect (IC50 cell-based assay).
Setting [7] is: hMLKL, Table 25, read-out: MLKL (KD).

Like-named read-outs stand apart in the source and are kept apart here.

Sequence of human MLKL (full length) (Q8NB16 whole entry, the tested form may be a part): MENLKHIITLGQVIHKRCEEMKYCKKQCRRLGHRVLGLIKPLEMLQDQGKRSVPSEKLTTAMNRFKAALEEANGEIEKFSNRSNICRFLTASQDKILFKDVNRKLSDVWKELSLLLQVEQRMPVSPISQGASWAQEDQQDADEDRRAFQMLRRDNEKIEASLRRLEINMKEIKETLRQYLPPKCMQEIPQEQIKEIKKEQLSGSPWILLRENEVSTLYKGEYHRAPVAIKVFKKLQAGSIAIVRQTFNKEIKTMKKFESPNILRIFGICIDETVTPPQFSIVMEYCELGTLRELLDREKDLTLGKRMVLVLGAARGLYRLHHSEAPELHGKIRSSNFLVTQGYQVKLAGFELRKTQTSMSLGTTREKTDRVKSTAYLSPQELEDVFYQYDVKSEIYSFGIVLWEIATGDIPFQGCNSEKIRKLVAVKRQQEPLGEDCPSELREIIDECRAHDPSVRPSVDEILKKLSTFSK
Sequence of human RIPK3 (Q9Y572 whole entry): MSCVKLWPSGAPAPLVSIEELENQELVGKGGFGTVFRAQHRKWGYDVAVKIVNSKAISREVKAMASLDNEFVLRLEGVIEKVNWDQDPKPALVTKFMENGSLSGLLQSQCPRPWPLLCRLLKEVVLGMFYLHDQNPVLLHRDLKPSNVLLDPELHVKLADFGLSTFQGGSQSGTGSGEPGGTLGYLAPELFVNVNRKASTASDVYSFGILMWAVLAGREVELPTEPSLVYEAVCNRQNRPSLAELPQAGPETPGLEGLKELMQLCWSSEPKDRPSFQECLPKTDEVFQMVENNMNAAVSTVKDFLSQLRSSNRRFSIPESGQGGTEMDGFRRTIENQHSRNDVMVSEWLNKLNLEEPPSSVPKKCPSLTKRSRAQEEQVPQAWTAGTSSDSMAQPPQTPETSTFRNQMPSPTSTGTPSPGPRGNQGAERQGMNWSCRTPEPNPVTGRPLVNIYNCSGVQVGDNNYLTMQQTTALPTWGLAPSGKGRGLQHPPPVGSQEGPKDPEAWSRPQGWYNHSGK

Take `Cc1ncsc1-c1ccc(CNC(=O)[C@@H]2C[C@@H](O)CN2C(=O)[C@@H](NC(=O)CN2CCC(C#Cc3cnc(N)c4c(-c5ccc(NS(=O)(=O)C(F)F)c(O[C@@H](C)c6ccc(F)cc6)c5)nn(C)c34)CC2)C(C)(C)C)cc1` [Compound 1023, (2S,4R)-1-[(2S)-2-{2-[4-(2-{4-amino-3-[4-(difluoromethanesulfonamido)-3-[(1S)-1-(4-fluorophenyl)ethoxy]phenyl]-1-methyl-1H-pyrazolo[4,3-c]pyridin-7-yl}ethynyl)piperidin-1-yl]acetamido}-3,3-dimethylbutanoyl]-4-hydroxy-N-{[4-(4-methyl-1,3-thiazol-5-yl)phenyl]methyl} pyrrolidine-2-carboxamide]: the IC50 in assay [1] (Homo sapiens, U-937, Table 26) was below 1000 nM; in the assay with U937 cells (setting [3]) it was above 10000 nM. The DC50 on endogenous MLKL in MDF lay within 1000 to 10000 nM.
For `CCS(=O)(=O)Nc1ccc(-c2nn(C)c3c(-c4ccncc4)cnc(N)c23)cc1OCc1ccc(F)cc1` [Compound 1, N-(4-(4-amino-1-methyl-7-(pyridin-4-yl)-1H-pyrazolo[4,3-c]pyridin-3-yl)-2-((4-fluorobenzyl)oxy)phe-nyl)ethanesulfonamide], the values for the Kd at human MLKL (full length) (setting [4]), on human RIPK1 and on human RIPK3 were 1 to 100 nM, above 10000 nM and above 10000 nM, respectively. Moreover, the IC50 was 1000 to 10000 nM in assay [1] (Homo sapiens, U-937, Table 23) and above 10000 nM with U937 cells (setting [5]).
In the case of `CNc1ncc(-n2cc(-c3cnc(N)c4c(-c5ccc(NS(=O)(=O)C(F)F)c(O[C@@H](C)c6ccc(F)cc6)c5)nn(C)c34)cn2)cn1` [Compound 138, (S)-N-(4-(4-amino-1-methyl-7-(1-(2-(methylamino)pyrimidin-5-yl)-1H-pyrazol-4-yl)-1H-pyrazolo[4,3-c]pyridin-3-yl)-2-(1-(4-fluorophenyl)ethoxy)phenyl)-1,1-difluoromethanesulfonamide], the results for the Kd at human MLKL (full length) (setting [4]), at human RIPK1 and on human RIPK3 were 1 to 100 nM, above 10000 nM and above 10000 nM, respectively. For the same molecule, the IC50 in assay [1] (Table 23) is 10 to 1000 nM; in the assay with U937 cells (setting [6]) it was above 10000 nM.
As to `C[C@H](Oc1cc(-c2nn(C)c3c(-c4ccc(N5CCNCC5)nc4)cnc(N)c23)ccc1NS(=O)(=O)C(F)F)c1ccc(F)cc1` [Compound 108], the Kd at human MLKL (full length) (setting [4]) was below 1 nM; at human RIPK1 it was above 10000 nM; on human RIPK3, above 10000 nM. Moreover, the IC50 in assay [1] (Table 23) was 10 to 1000 nM; with U937 cells (setting [6]), above 10000 nM.
As for `Cc1ncsc1-c1ccc(CNC(=O)[C@@H]2C[C@@H](O)CN2C(=O)[C@@H](NC(=O)CN2CCC(n3cc(-c4cnc(N)c5c(-c6ccc(NS(=O)(=O)C(F)F)c(O[C@@H](C)c7ccc(F)cc7)c6)nn(C)c45)cn3)CC2)C(C)(C)C)cc1` [Compound 1016, (2S,4R)-1-[(2S)-2-{2-[4-(4-{4-amino-3-[4-(difluoromethanesulfonamido)-3-[(1S)-1-(4-fluorophenyl)ethoxy]phenyl]-1-methyl-1H-pyrazolo[4,3-c]pyridin-7-yl}-1H-pyrazol-1-yl)piperidin-1-yl]acetamido}-3,3-dimethylbutanoyl]-4-hydroxy-N-{[4-(4-methyl-1,3-thiazol-5-yl)phenyl]methyl}pyrrolidine-2-carboxamide], the IC50 in assay [1] (Homo sapiens, U-937, Table 26) was below 1000 nM; with U937 cells (setting [3]) it was above 10000 nM; in assay [2] (Table 27) it was below 1000 nM.
Consider `CCS(=O)(=O)Nc1ccc(-c2nn(C)c3c(-c4cnn(CCOCCOCC(=O)N[C@H](C(=O)N5C[C@H](O)C[C@H]5C(=O)NCc5ccc(-c6scnc6C)cc5)C(C)(C)C)c4)cnc(N)c23)cc1` [Compound 1019, (2S,4R)-1-[(2S)-2-{2-[2-(2-{4-[4-amino-3-(4-ethanesulfonamidophenyl)-1-methyl-1H-pyrazolo[4,3-c]pyridin-7-yl]-1H-pyrazol-1-yl}ethoxy)ethoxy]acetamido}-3,3-dimethylbutanoyl]-4-hydroxy-N-{[4-(4-methyl-1,3-thiazol-5-yl)phenyl]methyl}pyrrolidine-2-carboxamide], for which the Kd on human MLKL (full length) (setting [7]) lay in the range of 10 to 1000 nM. Further, the half-maximal inhibitory concentration (IC50) in assay [1] (Homo sapiens, U-937, Table 26) was 1000 to 10000 nM; in the assay with U937 cells (setting [3]), above 10000 nM.
In the case of `C[C@H](Oc1cc(-c2nn(C)c3c(-c4cnn([C@@H]5CCN(C)C(C)(C)C5)c4)cnc(N)c23)ccc1NS(=O)(=O)C(F)F)c1ccc(F)cc1` (single isomer, unassigned) [Compound 154, N-(4-(4-amino-1-methyl-7-(1-((R*)-1,2,2-trimethylpiperidin-4-yl)-1H-pyrazol-4-yl)-1H-pyrazolo[4,3-c]pyridin-3-yl)-2-((S)-1-(4-fluorophenyl)ethoxy)phenyl)-1,1-difluoromethanesulfonamide], the Kd on human RIPK1 and on human RIPK3 was above 10000 nM each time. Also, the IC50 in assay [1] (Homo sapiens, U-937, Table 23) is below 10 nM; in the assay on U937 cells (setting [5]), above 10000 nM.
`CCS(=O)(=O)Nc1ccc(-c2nn(C)c3c(-c4cnn(CCCCCCC(=O)N[C@H](C(=O)N5C[C@H](O)C[C@H]5C(=O)NCc5ccc(-c6scnc6C)cc5)C(C)(C)C)c4)cnc(N)c23)cc1` [Compound 1020, (2S,4R)-1-[(2S)-2-(7-{4-[4-amino-3-(4-ethanesulfonamidophenyl)-1-methyl-1H-pyrazolo[4,3-c]pyridin-7-yl]-1H-pyrazol-1-yl}heptanamido)-3,3-dimethylbutanoyl]-4-hydroxy-N-{[4-(4-methyl-1,3-thiazol-5-yl)phenyl]methyl}pyrrolidine-2-carboxamide]: the Kd on human MLKL (full length) (setting [7]) was 10 to 1000 nM. Moreover, the IC50 in assay [1] (Homo sapiens, U-937, Table 26) was below 1000 nM; in the assay on U937 cells (setting [3]), above 10000 nM.
As for `C[C@H](Oc1cc(-c2nn(C)c3c(-c4cnn(C5CCN(C)C(C)(C)C5)c4)cnc(N)c23)ccc1NS(=O)(=O)C(F)F)c1ccc(F)cc1` (single isomer, unassigned) [Compound 155, N-(4-(4-amino-1-methyl-7-(1-((S*)-1,2,2-trimethylpiperidin-4-yl)-1H-pyrazol-4-yl)-1H-pyrazolo[4,3-c]pyridin-3-yl)-2-((S)-1-(4-fluorophenyl)ethoxy)phenyl)-1,1-difluoromethanesulfonamide], the 50% inhibitory concentration (IC50) in assay [1] (Homo sapiens, U-937, Table 23) is below 10 nM; in the assay with U937 cells (setting [5]) it was above 10000 nM; in assay [2] (Table 24), below 1000 nM.
